For data set [1], the target named is T1, human opioid receptor KOR (Homo sapiens, UniProt P41145).
T1 construct: purchased PerkinElmer (Krakow, Poland); host or cells: CHO cell membranes
As to the kind of experiment: Radioligand binding assay, displacement of [3H]U-69593. As to conditions: displacement of [3H]U-69593 from membranes of CHO cells transfected with human KOR, 50 mM Tris/HCl pH 7.4, 0.5% BSA, peptidase inhibitors, 2 h at 25 °C, mean ± SEM, n ≥ 3. The protocol:
(§1) A radioligand binding assay was performed to determine the opioid receptor (OR) binding affinities of the novel analogs using commercially available membranes of Chinese hamster ovary cells (CHO) transfected with human recombinant ORs. [^3H]DAMGO, [^3H]deltorphin-2, and [^3H]U-69593 were used as the radioligands for MOR, DOR, and KOR, respectively. Tyr-[D-Lys-Phe-Phe-Asp]NH2 (1) was used as a reference opioid compound. […] None of them acquired significant DOR affinity.
(§2) To determine the affinity of peptide analogs to respective receptors, competition binding experiments were performed, as described in detail elsewhere.
(§3) Commercial membranes of CHO cells stably expressing either human ORs or NK1 receptor were used. [^3H]DAMGO, [^3H]deltorphin-2, and [^3H]U-69593 were employed as the competing radioligands for MOR, DOR, and KOR, respectively, while [^3H][Sar^9, Met(O2)^11]SP was utilized for the NK1 receptor. Membranes were incubated in a 0.5 mL volume of 50 mM Tris/HCl (pH = 7.4), 0.5% bovine serum albumin (BSA), with a number of peptidase inhibitors (bacitracin, bestatin, captopril) and various concentrations of radioligands for 2 h at 25 °C. Nonspecific binding was assessed in the presence of […] naloxone for ORs or SP for NK1 receptor.
(§4) The pharmacological terminology adopted in this paper is consistent with International Union of Basic and Clinical Pharmacology (IUPHAR) recommendations. Concentration–response curves were analyzed by nonlinear regression using Graph Pad Prism 6.0 (La Jolla, CA, USA). […]. […] Concentration–response curves were fitted with the four-parameter logistic nonlinear regression model (1) Effect=baseline+Emax−baseline/1+10^logEC50−X·n where X is the agonist concentration and n is the Hill coefficient. Ligand efficacy was expressed as intrinsic activity (α) calculated as a ratio of the peptide Emax to the Emax of the standard agonist (Supplementary Materials, Figure S7). […]. All statistical analyses were performed using Graph Pad Prism 6.0 (La Jolla, CA, USA). Differences between groups were analyzed with one-way ANOVA and a post hoc multiple comparison by the Student–Newman–Keuls test. A probability level of 0.05 or smaller was used to indicate statistical significance.

In data set [2] the target is T2, human opioid receptor MOR (Homo sapiens, UniProt P35372).
T2 construct: purchased PerkinElmer (Krakow, Poland); host or cells: CHO cell membranes
Nature of the data set: Radioligand binding assay, displacement of [3H]DAMGO. As to conditions: displacement of [3H]DAMGO from membranes of CHO cells transfected with human MOR, 50 mM Tris/HCl pH 7.4, 0.5% BSA, peptidase inhibitors, 2 h at 25 °C, mean ± SEM, n ≥ 3. The method, then: as §1, §2, §3, §4
Background: In a radioligand displacement assay an active substance lowers the binding of a labelled ligand.

The target of data set [3] is T3, human KOR (Homo sapiens, UniProt P41145).
T3 construct: expressed in transfected cells; host or cells: CHO cells (University of Ferrara), co-expressing Gαqi5
As to the kind of experiment: Calcium mobilization functional assay, agonist mode. Type of data set: cell-based. Conditions: CHO cells co-expressing human KOR and Gαqi5; Fluo-4 AM calcium signal; n = 5; read-out: KOR pEC50 (CL95%) (converted).

The subject of data set [4] is mice. As to the kind of experiment: Stool collection (stool mass, stool water content). Type of data set: in vivo. Conditions: repeated i.p. injections 5 mg/kg, stool collected 90 min after injection on Days 1–6, compared to control group, n = 10. The method, then: In order to determine the influence of prolonged administration of the tested compounds on gastrointestinal passage, stool was collected for six days from mice used in the tolerance development test.
Figure 5 Effect of repeated i.p. injections of saline and the tested peptides on stool mass (A), stool water content (B), food intake (C), and water consumption (D). The data represent mean ± SEM, n = 10. Statistical significance was assessed using one-way ANOVA and a post hoc multiple comparison by the Student–Newman–Keuls test. *** p < 0.001, as compared to control.
After the i.p. injections of saline or peptides (Days 1–6), mice were placed in a separate clean cages and stool was collected for a period of 90 min. Fecal pellets were collected immediately after expulsion to avoid evaporation and placed in closed 1.5 mL tubes. Tubes were weighed to obtain the wet weight of the stool. Then, the tubes were opened and stool was dried overnight at 65 °C and reweighed to obtain the dry weight. The stool water content was calculated from the difference between the wet and dry stool weights.

Data set [5] has as its target T4, human MOR (Homo sapiens, UniProt P35372).
T4 construct: expressed in transfected cells; host or cells: CHO cells (University of Ferrara), co-expressing Gαqi5
As to the kind of experiment: Calcium mobilization functional assay, agonist mode. Type of data set: cell-based. Conditions: CHO cells co-expressing human MOR and Gαqi5; Fluo-4 AM calcium signal; n = 5; read-out: MOR pEC50 (CL95%) (converted). Background: Calcium assays in cells follow changes in intracellular calcium, usually with a dye or a luminescent sensor.

Data set [6] deals with T5, human opioid receptor DOR (Homo sapiens, UniProt P41143).
T5 construct: purchased PerkinElmer (Krakow, Poland); host or cells: CHO cell membranes
As to the kind of experiment: Radioligand binding assay, displacement of [3H]deltorphin-2. Conditions: displacement of [3H]deltorphin-2 from membranes of CHO cells transfected with human DOR, 50 mM Tris/HCl pH 7.4, 0.5% BSA, peptidase inhibitors, 2 h at 25 °C, mean ± SEM, n ≥ 3. The protocol:
A radioligand binding assay was performed to determine the opioid receptor (OR) binding affinities of the novel analogs using commercially available membranes of Chinese hamster ovary cells (CHO) transfected with human recombinant ORs. […] Tyr-[D-Lys-Phe-Phe-Asp]NH2 (1) was used as a reference opioid compound.
as §2
(§5) Commercial membranes of CHO cells stably expressing either human ORs or NK1 receptor were used. […] Membranes were incubated in a 0.5 mL volume of 50 mM Tris/HCl (pH = 7.4), 0.5% bovine serum albumin (BSA), with a number of peptidase inhibitors (bacitracin, bestatin, captopril) and various concentrations of radioligands for 2 h at 25 °C.
(§6) The pharmacological terminology adopted in this paper is consistent with International Union of Basic and Clinical Pharmacology (IUPHAR) recommendations. Concentration–response curves were analyzed by nonlinear regression using Graph Pad Prism 6.0 (La Jolla, CA, USA). […] Concentration–response curves were fitted with the four-parameter logistic nonlinear regression model (1) Effect=baseline+Emax−baseline/1+10^logEC50−X·n where X is the agonist concentration and n is the Hill coefficient. Ligand efficacy was expressed as intrinsic activity (α) calculated as a ratio of the peptide Emax to the Emax of the standard agonist (Supplementary Materials, Figure S7). […] All statistical analyses were performed using Graph Pad Prism 6.0 (La Jolla, CA, USA). Differences between groups were analyzed with one-way ANOVA and a post hoc multiple comparison by the Student–Newman–Keuls test. A probability level of 0.05 or smaller was used to indicate statistical significance.

Data set [7] addresses T6, DOR (Homo sapiens, UniProt P41143).
T6 construct: expressed in transfected cells; host or cells: CHO cells (University of Ferrara), co-expressing GαqG66Di5
As to the kind of experiment: Calcium mobilization functional assay, agonist mode. It is filed as cell-based. Conditions: CHO cells co-expressing DOR and GαqG66Di5; Fluo-4 AM calcium signal; n = 5.

The target in data set [8] is human NK1 (Homo sapiens, UniProt P25103). As to the kind of experiment: Radioligand binding assay, displacement of [3H][Sar9, Met(O2)11]SP. Conditions: displacement of [3H][Sar9, Met(O2)11]SP from membranes of CHO cells transfected with human NK1 receptor; 50 mM Tris/HCl pH 7.4, 0.5% BSA, peptidase inhibitors, 2 h at 25 °C; mean ± SEM, n ≥ 3. Also noted: purchased PerkinElmer (Krakow, Poland); host or cells: CHO cell membranes. The protocol: The binding assay was also used to examine the affinity of the synthesized hybrids for NK1 in commercial membranes of CHO cells stably expressing human NK1.
as §2, §5, §6

For data set [9] the following is noted: cited from earlier work. The text has this: Here, we report on the synthesis and the initial pharmacological testing of several hybrid peptides with opioid agonist/NK1 antagonist and opioid agonist/NK1 agonist profiles. We performed structure affinity/activity relationship studies, seeking hybrids that could simultaneously and potently bind opioid and NK1 receptors. Both types of hybrids were designed with the same opioid fragment to make the comparison of their activity easier. It was already documented in the literature that simultaneous activation of both MOR and KOR intensifies the analgesic effect of pure MOR agonists. There ...

SMILES strings stand for the structures. Where a SMILES comes first, the peptide text is derived from it. Bridges are numbered along the chain shown (N, C = ends). [ ]: non-standard residue; d: D form.

Sequence of human NK1 (P25103 whole entry): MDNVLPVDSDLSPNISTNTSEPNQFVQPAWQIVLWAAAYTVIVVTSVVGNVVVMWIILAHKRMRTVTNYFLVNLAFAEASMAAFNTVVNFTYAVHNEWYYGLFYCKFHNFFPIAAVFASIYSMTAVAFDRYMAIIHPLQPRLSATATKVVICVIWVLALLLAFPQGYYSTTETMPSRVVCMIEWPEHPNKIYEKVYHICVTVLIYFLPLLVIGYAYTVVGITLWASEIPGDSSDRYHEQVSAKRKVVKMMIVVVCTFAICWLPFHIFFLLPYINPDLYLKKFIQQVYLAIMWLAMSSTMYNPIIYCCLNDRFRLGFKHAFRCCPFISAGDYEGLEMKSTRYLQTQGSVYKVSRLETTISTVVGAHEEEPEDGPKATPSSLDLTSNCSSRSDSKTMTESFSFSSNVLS
T4 sequence (P35372 whole entry): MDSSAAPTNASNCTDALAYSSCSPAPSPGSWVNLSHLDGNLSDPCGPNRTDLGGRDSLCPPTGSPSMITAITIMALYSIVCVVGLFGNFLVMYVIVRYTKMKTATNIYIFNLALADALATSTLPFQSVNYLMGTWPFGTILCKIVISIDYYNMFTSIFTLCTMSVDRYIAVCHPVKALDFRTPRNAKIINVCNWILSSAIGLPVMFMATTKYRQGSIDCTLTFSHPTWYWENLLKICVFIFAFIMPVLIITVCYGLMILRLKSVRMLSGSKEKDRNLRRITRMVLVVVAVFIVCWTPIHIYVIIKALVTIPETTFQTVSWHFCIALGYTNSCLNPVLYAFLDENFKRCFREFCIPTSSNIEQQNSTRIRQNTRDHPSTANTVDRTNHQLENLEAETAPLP
T2 sequence (P35372 whole entry): as above
T6 sequence (P41143 whole entry): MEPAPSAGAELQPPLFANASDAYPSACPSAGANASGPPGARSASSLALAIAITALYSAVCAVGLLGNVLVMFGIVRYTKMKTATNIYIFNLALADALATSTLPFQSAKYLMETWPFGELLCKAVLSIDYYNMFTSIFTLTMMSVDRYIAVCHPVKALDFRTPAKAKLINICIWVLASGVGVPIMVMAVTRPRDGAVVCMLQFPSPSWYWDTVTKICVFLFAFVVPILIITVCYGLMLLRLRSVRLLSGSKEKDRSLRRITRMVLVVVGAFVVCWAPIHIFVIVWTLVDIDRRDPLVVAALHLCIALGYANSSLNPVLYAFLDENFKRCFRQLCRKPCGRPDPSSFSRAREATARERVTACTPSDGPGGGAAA
T5 sequence (P41143 whole entry): as above
T3 sequence (P41145 whole entry): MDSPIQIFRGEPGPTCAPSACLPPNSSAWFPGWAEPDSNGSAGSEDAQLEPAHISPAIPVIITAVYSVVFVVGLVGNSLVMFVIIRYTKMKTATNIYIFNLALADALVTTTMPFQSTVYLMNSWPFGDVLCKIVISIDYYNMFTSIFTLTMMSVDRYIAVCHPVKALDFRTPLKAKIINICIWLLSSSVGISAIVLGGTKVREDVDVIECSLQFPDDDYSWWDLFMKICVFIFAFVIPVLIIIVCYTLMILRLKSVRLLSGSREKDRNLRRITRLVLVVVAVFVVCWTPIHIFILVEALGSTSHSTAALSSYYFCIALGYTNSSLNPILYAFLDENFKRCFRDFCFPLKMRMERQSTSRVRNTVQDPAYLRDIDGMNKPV
T1 sequence (P41145 whole entry): as above

For the compound `NC(=O)[C@@H]1CC(=O)NCCCC[C@@H](NC(=O)[C@@H](N)Cc2ccc(O)cc2)C(=O)N[C@@H](Cc2ccccc2)C(=O)N[C@@H](Cc2ccccc2)C(=O)N1` [compound 1, Tyr-c[D-Lys-Phe-Phe-Asp]NH2] (H-Y[dK]FFD-NH2; lactam 2-5), the Ki (as a rule, a measure of affinity in units of concentration, obtained from inhibition or displacement) amounted to 1.12 ± 0.2 nM in data set [1], 0.35 ± 0.02 nM in data set [2] and 171 ± 3.5 nM in data set [6]. The EC50 in [3] is 2.19 nM; in data set [5], 1.05 nM. In addition, in [4], the “stool mass (constipation)” value was “serious constipation”. Moreover, the “DOR pEC50 (CL95%)” value in data set [7] is “Crc incomplete”. Besides, the “Ki NK1” value in data set [8] is listed as “Inactive”. Moreover, in [9], the enzymatic stability entry is “very good enzymatic stability”.

The record behind these values is article PMC6943619, “Synthesis and Pharmacological Evaluation of Hybrids Targeting Opioid and Neurokinin Receptors” (Molecules, 2019).
